In patent US6737383B1, “Herbicidal oxadiazolidines” (priority 1999, dated 2004):

How the values were obtained:
blackgrass = assay: Test B pre/postemergence blackgrass; assay type: in vivo, Alopecurus myosuroides; conditions: for Blackgrass plant response rating: scale of 0 to 10 where 0 is no effect and 10 is complete control
Summary of the method: (§1)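 Response is a visual 0-to-10 score relative to untreated plants, where 0 means no effect and 10 means complete control, taken twelve to sixteen days after application. Treatments went onto soil at planting and onto foliage of 1- to 4-leaf plants, using a surfactant-containing non-phytotoxic solvent.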

cocklebur = assay: Test B pre/postemergence cocklebur; assay type: in vivo, Xanthium strumarium; conditions: for Cocklebur plant response rating: scale of 0 to 10 where 0 is no effect and 10 is complete control
Summary of the method: as §1

giant foxtail = assay: Test B pre/postemergence giant foxtail; assay type: in vivo, Setaria faberii; conditions: for Giant foxtail plant response rating: scale of 0 to 10 where 0 is no effect and 10 is complete control
Summary of the method: as §1

morningglory = assay: Test B pre/postemergence morningglory; assay type: in vivo, Ipomoea hederacea; conditions: for Morningglory plant response rating: scale of 0 to 10 where 0 is no effect and 10 is complete control
Summary of the method: as §1

pigweed = assay: Test B pre/postemergence pigweed; assay type: in vivo, Amaranthus retroflexus; conditions: for Redroot pigweed plant response rating: scale of 0 to 10 where 0 is no effect and 10 is complete control
Summary of the method: as §1

rape = assay: Test B pre/postemergence rape; assay type: in vivo, Brassica napus; conditions: for Rape plant response rating: scale of 0 to 10 where 0 is no effect and 10 is complete control
Summary of the method: as §1

soybean = assay: Test B pre/postemergence soybean; assay type: in vivo, Glycine max; conditions: for Soybean plant response rating: scale of 0 to 10 where 0 is no effect and 10 is complete control
Summary of the method: as §1

sugar beet = assay: Test B pre/postemergence sugar beet; assay type: in vivo, Beta vulgaris; conditions: for Sugarbeets plant response rating: scale of 0 to 10 where 0 is no effect and 10 is complete control
Summary of the method: as §1

velvetleaf = assay: Test B pre/postemergence velvetleaf; assay type: in vivo, Abutilon theophrasti; conditions: for Velvetleaf plant response rating: scale of 0 to 10 where 0 is no effect and 10 is complete control
Summary of the method: as §1

wheat = assay: Test B pre/postemergence wheat; assay type: in vivo, Triticum aestivum; conditions: for Wheat plant response rating: scale of 0 to 10 where 0 is no effect and 10 is complete control
Summary of the method: as §1

wild oat = assay: Test B pre/postemergence wild oat; assay type: in vivo, Avena fatua; conditions: for Wild oats plant response rating: scale of 0 to 10 where 0 is no effect and 10 is complete control
Summary of the method: as §1

purple nutsedge = assay: Test B pre/postemergence purple nutsedge; assay type: in vivo, Cyperus rotundus; conditions: for Nutsedge plant response rating: scale of 0 to 10 where 0 is no effect and 10 is complete control
Summary of the method: as §1

rice = assay: Test B flood test rice; assay type: in vivo, Oryza sativa
Summary of the method: (§2)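 Plants were grown to the 2-leaf stage before treatment with test chemical, then held in a greenhouse for twelve to sixteen days. Injury was visually rated against untreated controls on a 0–10 scale, where 0 is no effect and 10 is complete control.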

smallflower flatsedge = assay: Test B flood test smallflower flatsedge; assay type: in vivo, Cyperus difformis
Summary of the method: as §2

duck salad = assay: Test B flood test duck salad; assay type: in vivo, Heteranthera limosa
Summary of the method: as §2

bamyardgrass = assay: Test B flood test barnyardgrass; assay type: in vivo, Echinochloa crus-galli
Summary of the method: as §2

[1] = Postemergence, Rate 125 g/ha, scale 0 to 10, 0 is no effect, 10 is complete control
[2] = Postemergence, Rate 250 g/ha, scale 0 to 10, 0 is no effect, 10 is complete control
[3] = Preemergence, Rate 62 g/ha, scale 0 to 10 (0 no effect, 10 complete control)
[4] = Rate 500 g/ha, Postemergence, scale 0 to 10, 0 no effect, 10 complete control
[5] = Rate 62 g/ha, flood test species, Pre-emergence, visual evaluation after twelve to sixteen days
[6] = Rate 125 g/ha, under heading Pre-emergence, flood test species, visual evaluation after twelve to sixteen days
[7] = Rate 250 g/ha, Pre-emergence, flood-test species, scale 0 to 10, 0 is no effect, 10 is complete control
[8] = Rate 500 g/ha, Pre-emergence, flood test species, scale 0 to 10 (0 no effect, 10 complete control)

CC(C)N(C(=O)n1oc(=O)n(N2CCOCC2)c1=O)c1ccc(F)cc1 [Compound 385] was tested, and the “Plant response rating, Blackgrass” value (blackgrass; [1]) was 0, the “Plant response rating, Blackgrass” value (blackgrass; [2]) was 2 and the “Plant response rating, Blackgrass” value (blackgrass; [3]) was 0. For the same molecule, the “Blackgrass plant response rating (0 to 10 scale)” value (blackgrass; Preemergence, Rate 125 g/ha) was 0, the “Blackgrass plant response rating” value (blackgrass; Preemergence, Rate 250 g/ha) was 6 and the “Blackgrass plant response rating” value (blackgrass; Preemergence, Rate 500 g/ha) was 10. The “Blackgrass plant response rating” value (blackgrass; Rate 62 g/ha, Postemergence) was 0, the “Plant response rating, Blackgrass” value (blackgrass; [4]) was 8 and the “Plant response rating, Cocklebur” value (cocklebur; [1]) was 0. The “Plant response rating, Cocklebur” value (cocklebur; [2]) was 0, the “Plant response rating, Cocklebur” value (cocklebur; [3]) was 0 and the “Cocklebur plant response rating (0 to 10 scale)” value (cocklebur; Preemergence, Rate 125 g/ha) was 0. The “Cocklebur plant response rating” value (cocklebur; Preemergence, Rate 250 g/ha) was 0, the “Cocklebur plant response rating” value (cocklebur; Preemergence, Rate 500 g/ha) was 0 and the “Cocklebur plant response rating” value (cocklebur; Rate 62 g/ha, Postemergence) was 0. For the same molecule, the “Plant response rating, Cocklebur” value (cocklebur; [4]) was 0, the “Plant response rating, Giant foxtail” value (giant foxtail; [1]) was 9 and the “Plant response rating, Giant foxtail” value (giant foxtail; [2]) was 9. The “Plant response rating, Giant foxtail” value (giant foxtail; [3]) was 3, the “Giant foxtail plant response rating (0 to 10 scale)” value (giant foxtail; Preemergence, Rate 125 g/ha) was 10 and the “Giant foxtail plant response rating” value (giant foxtail; Preemergence, Rate 250 g/ha) was 10. For the same molecule, the “Giant foxtail plant response rating” value (giant foxtail; Preemergence, Rate 500 g/ha) was 10, the “Giant foxtail plant response rating” value (giant foxtail; Rate 62 g/ha, Postemergence) was 7 and the “Plant response rating, Giant foxtail” value (giant foxtail; [4]) was 9. The “Plant response rating, Morningglory” value (morningglory; [1]) was 1, the “Plant response rating, Morningglory” value (morningglory; [2]) was 2 and the “Plant response rating, Morningglory” value (morningglory; [3]) was 0. The “Morningglory plant response rating (0 to 10 scale)” value (morningglory; Preemergence, Rate 125 g/ha) was 0, the “Morningglory plant response rating” value (morningglory; Preemergence, Rate 250 g/ha) was 0 and the “Morningglory plant response rating” value (morningglory; Preemergence, Rate 500 g/ha) was 2. The “Morningglory plant response rating” value (morningglory; Rate 62 g/ha, Postemergence) was 1, the “Plant response rating, Morningglory” value (morningglory; [4]) was 5 and the “Plant response rating, Redroot pigweed” value (pigweed; [1]) was 0. The “Plant response rating, Redroot pigweed” value (pigweed; [2]) was 0, the “Plant response rating, Redroot pigweed” value (pigweed; [3]) was 2 and the “Redroot pigweed plant response rating (0 to 10 scale)” value (pigweed; Preemergence, Rate 125 g/ha) was 7. For the same molecule, the “Redroot pigweed plant response rating” value (pigweed; Preemergence, Rate 250 g/ha) was 7, the “Redroot pigweed plant response rating” value (pigweed; Preemergence, Rate 500 g/ha) was 10 and the “Redroot pigweed plant response rating” value (pigweed; Rate 62 g/ha, Postemergence) was 0. For the same molecule, the “Plant response rating, Redroot pigweed” value (pigweed; [4]) was 0, the “Plant response rating, Rape” value (rape; [1]) was 0 and the “Plant response rating, Rape” value (rape; [2]) was 0. For the same molecule, the “Plant response rating, Rape” value (rape; [3]) was 0, the “Rape plant response rating (0 to 10 scale)” value (rape; Preemergence, Rate 125 g/ha) was 0 and the “Rape plant response rating” value (rape; Preemergence, Rate 250 g/ha) was 0. The “Rape plant response rating” value (rape; Preemergence, Rate 500 g/ha) was 4, the “Rape plant response rating” value (rape; Rate 62 g/ha, Postemergence) was 0 and the “Plant response rating, Rape” value (rape; [4]) was 0. The “Plant response rating, Soybean” value (soybean; [1]) was 2, the “Plant response rating, Soybean” value (soybean; [2]) was 2 and the “Plant response rating, Soybean” value (soybean; [3]) was 0. For the same molecule, the “Soybean plant response rating (0 to 10 scale)” value (soybean; Preemergence, Rate 125 g/ha) was 0, the “Soybean plant response rating” value (soybean; Preemergence, Rate 250 g/ha) was 0 and the “Soybean plant response rating” value (soybean; Preemergence, Rate 500 g/ha) was 0. The “Soybean plant response rating” value (soybean; Rate 62 g/ha, Postemergence) was 2, the “Plant response rating, Soybean” value (soybean; [4]) was 2 and the “Plant response rating, Sugarbeets” value (sugar beet; [1]) was 0. The “Plant response rating, Sugarbeets” value (sugar beet; [2]) was 0, the “Plant response rating, Sugarbeets” value (sugar beet; [3]) was 0 and the “Sugarbeets plant response rating (0 to 10 scale)” value (sugar beet; Preemergence, Rate 125 g/ha) was 1. For the same molecule, the “Sugarbeets plant response rating” value (sugar beet; Preemergence, Rate 250 g/ha) was 2, the “Sugarbeets plant response rating” value (sugar beet; Preemergence, Rate 500 g/ha) was 7 and the “Sugarbeets plant response rating” value (sugar beet; Rate 62 g/ha, Postemergence) was 0. The “Plant response rating, Sugarbeets” value (sugar beet; [4]) was 0, the “Plant response rating, Velvetleaf” value (velvetleaf; [1]) was 0 and the “Plant response rating, Velvetleaf” value (velvetleaf; [2]) was 0. For the same molecule, the “Plant response rating, Velvetleaf” value (velvetleaf; [3]) was 0, the “Velvetleaf plant response rating (0 to 10 scale)” value (velvetleaf; Preemergence, Rate 125 g/ha) was 0 and the “Velvetleaf plant response rating” value (velvetleaf; Preemergence, Rate 250 g/ha) was 3. The “Velvetleaf plant response rating” value (velvetleaf; Preemergence, Rate 500 g/ha) was 3, the “Velvetleaf plant response rating” value (velvetleaf; Rate 62 g/ha, Postemergence) was 0 and the “Plant response rating, Velvetleaf” value (velvetleaf; [4]) was 0. For the same molecule, the “Plant response rating, Wheat” value (wheat; [1]) was 0, the “Plant response rating, Wheat” value (wheat; [2]) was 0 and the “Plant response rating, Wheat” value (wheat; [3]) was 0. For the same molecule, the “Wheat plant response rating (0 to 10 scale)” value (wheat; Preemergence, Rate 125 g/ha) was 0, the “Wheat plant response rating” value (wheat; Preemergence, Rate 250 g/ha) was 3 and the “Wheat plant response rating” value (wheat; Preemergence, Rate 500 g/ha) was 8. The “Wheat plant response rating” value (wheat; Rate 62 g/ha, Postemergence) was 0, the “Plant response rating, Wheat” value (wheat; [4]) was 5 and the “Plant response rating, Wild oats” value (wild oat; [1]) was 0. For the same molecule, the “Plant response rating, Wild oats” value (wild oat; [2]) was 2, the “Plant response rating, Wild oats” value (wild oat; [3]) was 0 and the “Wild oats plant response rating (0 to 10 scale)” value (wild oat; Preemergence, Rate 125 g/ha) was 2. The “Wild oats plant response rating” value (wild oat; Preemergence, Rate 250 g/ha) was 7, the “Wild oats plant response rating” value (wild oat; Preemergence, Rate 500 g/ha) was 10 and the “Wild oats plant response rating” value (wild oat; Rate 62 g/ha, Postemergence) was 0. The “Plant response rating, Wild oats” value (wild oat; [4]) was 3, the “Plant response rating, Nutsedge” value (purple nutsedge; [1]) was 0 and the “Plant response rating, Nutsedge” value (purple nutsedge; [2]) was 0. The “Plant response rating, Nutsedge” value (purple nutsedge; [3]) was 0, the “Nutsedge plant response rating (0 to 10 scale)” value (purple nutsedge; Preemergence, Rate 125 g/ha) was 0 and the “Nutsedge plant response rating” value (purple nutsedge; Preemergence, Rate 250 g/ha) was 0. The “Nutsedge plant response rating” value (purple nutsedge; Preemergence, Rate 500 g/ha) was 0, the “Nutsedge plant response rating” value (purple nutsedge; Rate 62 g/ha, Postemergence) was 0 and the “Plant response rating, Nutsedge” value (purple nutsedge; [4]) was 0. The “Plant response rating, Rice (0 to 10 scale, 0 is no effect, 10 is complete control)” value (rice; [5]) was 0, the “Rice plant response rating (0 to 10 scale, 0 is no effect, 10 is complete control)” value (rice; [6]) was 0 and the “Rice plant response rating” value (rice; [7]) was 0. For the same molecule, the “Rice plant response rating” value (rice; [8]) was 0, the “Plant response rating, S. Flatsedge (0 to 10 scale, 0 is no effect, 10 is complete control)” value (smallflower flatsedge; [5]) was 0 and the “S. Flatsedge plant response rating (0 to 10 scale, 0 is no effect, 10 is complete control)” value (smallflower flatsedge; [6]) was 0. For the same molecule, the “S. Flatsedge plant response rating” value (smallflower flatsedge; [7]) was 0, the “S. Flatsedge plant response rating” value (smallflower flatsedge; [8]) was 0 and the “Plant response rating, Ducksalad (0 to 10 scale, 0 is no effect, 10 is complete control)” value (duck salad; [5]) was 0. The “Ducksalad plant response rating (0 to 10 scale, 0 is no effect, 10 is complete control)” value (duck salad; [6]) was 0, the “Ducksalad plant response rating” value (duck salad; [7]) was 0 and the “Ducksalad plant response rating” value (duck salad; [8]) was 0. For the same molecule, the “Plant response rating, Barnyardgrass (0 to 10 scale, 0 is no effect, 10 is complete control)” value (bamyardgrass; [5]) was 0, the “Barnyardgrass plant response rating (0 to 10 scale, 0 is no effect, 10 is complete control)” value (bamyardgrass; [6]) was 0 and the “Barnyardgrass plant response rating” value (bamyardgrass; [7]) was 0. The “Barnyardgrass plant response rating” value (bamyardgrass; [8]) was 0.
